Each block holds one molecule with its values, some of them ahead of it.
Molecular target: T1, FoF1-ATP synthase of cultured cells derived from human (HEK293) (Homo sapiens, UniProt P05496)
T1 construct: fractions containing cultured cell FoF1-ATP synthase obtained by the first centrifugation; endogenous in cells; host or cells: HEK293 (enzyme solubilised with GDN from the mitochondrial inner membrane and fractionated on sucrose density gradients)
Assay: ATP hydrolysis activity, change in absorbance at 340 nm by NADH oxidation
Assay type: biochemical
From the text: The FoF1-ATP synthase oligomer of the present invention has, in one embodiment, ATP synthesis activity or hydrolysis activity. These activities can be determined by methods well known to those skilled in the art. For example, ATP synthesis activity can be determined by using a luminescent reaction of the luciferin/luciferase system to determine the generated ATP. In addition, ATP hydrolysis activity can be determined based on absorbance changes at 340 nm by conjugating the hydrolysis reaction of ATP and the oxidation reaction from NADH (nicotinamide adenine dinucleotide) to NAD^+ in the presence of phosphoenolpyruvic acid, pyruvate kinase, and lactate dehydrogenase.
ATP hydrolysis activity of the fractions containing cultured cell FoF1-ATP synthase obtained by the first centrifugation under discontinuous density gradient of sucrose was determined. That is, the hydrolysis reaction of ATP with FoF1-ATP synthase was determined at 20° C. as change in absorbance at 340 nm by oxidation from NADH to NAD^+ conjugated with this reaction.
ATP hydrolysis activity of the samples contained in fraction 6-1 was determined in the same manner as described above in the presence or absence of oligomycin.
ATP hydrolysis activity of the samples collected from fraction 7 containing FoF1-ATP synthase tetramer and dimer was determined in the presence or absence of oligomycin, as in Example 1. If IF1, an endogenous inhibitory protein of mammalian ATP synthase, binds to FoF1-ATP synthase, the enzyme reaction is stopped. In order to release from FoF1-ATP synthase, samples collected from fraction 7 were mixed with 330 mM KCl and 100 mM Tris-HCl (pH 8.2). After incubation for 10 minutes at room temperature, ATP hydrolysis activity was determined. IF1 forms a dimer, binds between two FoF1-ATP synthase dimers, and stops the rotation of F1 present outside the membrane. As a result, ATP synthesis of the enzyme is stopped. Oligomycin binds to Fo of FoF1-ATP synthase and inhibits ATP synthesis.

Molecule: CC[C@H]1/C=C/C=C/C[C@@H](C)[C@H](O)[C@@](C)(O)C(=O)[C@@H](C)[C@H](O)[C@@H](C)C(=O)[C@@H](C)[C@H](O)[C@@H](C)/C=C/C(=O)O[C@@H]2[C@H](C)[C@H](CC1)O[C@]1(CC[C@H](C)[C@H](C[C@@H](C)O)O1)[C@H]2C [oligomycin]
ATP hydrolysis activity of the sample contained in fraction 6-1 in the presence of oligomycin (fraction 6-1 of first discontinuous sucrose density gradient centrifugation, HEK293, 20° C., FIG. 7): inhibited
ATP hydrolysis activity of the sample of fraction 7 in the presence of oligomycin (fraction 7 of third continuous sucrose density gradient centrifugation, HEK293, regardless of treatment to release IF1, FIG. 12): did not exhibit ATP hydrolysis activity

Enzyme inhibition of the ATP synthase contained in fraction 7 by IF1 (fraction 7, third centrifugation, activity compared with and without treatment to release IF1 (330 mM KCl, 100 mM Tris-HCl pH 8.2, 10 minutes), FIG. 12): undergoes enzyme inhibition by IF1
B1: IF1: ATP synthase inhibitory factor subunit 1, an endogenous inhibitory protein of a mammalian ATP synthase (protein, UniProt Q9UII2 26-106, looked up)
ATPase inhibitor, …: GSDQSENVDRGAGSIREAGGAFGKREQAEEERYFRAQSREQLAALKKHHEEEIVHHKKEIERLQKEIERHKQKIKMLKHDD

Reference: patent publication US20240352430A1, “FoF1-ATP SYNTHASE OLIGOMER” (KYOTO UNIVERSITY, priority 2021, published 2024)
